Results reported in patent US20080171737A1 (Wyeth, priority 2006, published 2008).
Structures can show the parent of a compound that is named as a salt.

target: T1, human hNET (Homo sapiens, UniProt P23975); assay: Functional norepinephrine reuptake assay, Procedure B (6,000 cells/well); format: cell-based; details: MDCK-Net6 cells, 6,000 cells/well, 16 nM 3H-norepinephrine; read-out: Procedure B hNET uptake IC50
T1 construct: expressed in transfected cells; host or cells: MDCK-Net6 (MDCK cells stably transfected with hNET)
How it was run: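 MDCK cells stably expressing human NET, 6,000 cells/well, in HEPES-buffered saline pH 7.4 with ascorbic acid and 1 μM pargyline; compound preincubated 5 min at 37° C. ^3H norepinephrine uptake counted by scintillation; non-specific defined with 20 μM desipramine. IC50 from variable-slope sigmoidal nonlinear fit.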

T1 sequence (P23975 whole entry): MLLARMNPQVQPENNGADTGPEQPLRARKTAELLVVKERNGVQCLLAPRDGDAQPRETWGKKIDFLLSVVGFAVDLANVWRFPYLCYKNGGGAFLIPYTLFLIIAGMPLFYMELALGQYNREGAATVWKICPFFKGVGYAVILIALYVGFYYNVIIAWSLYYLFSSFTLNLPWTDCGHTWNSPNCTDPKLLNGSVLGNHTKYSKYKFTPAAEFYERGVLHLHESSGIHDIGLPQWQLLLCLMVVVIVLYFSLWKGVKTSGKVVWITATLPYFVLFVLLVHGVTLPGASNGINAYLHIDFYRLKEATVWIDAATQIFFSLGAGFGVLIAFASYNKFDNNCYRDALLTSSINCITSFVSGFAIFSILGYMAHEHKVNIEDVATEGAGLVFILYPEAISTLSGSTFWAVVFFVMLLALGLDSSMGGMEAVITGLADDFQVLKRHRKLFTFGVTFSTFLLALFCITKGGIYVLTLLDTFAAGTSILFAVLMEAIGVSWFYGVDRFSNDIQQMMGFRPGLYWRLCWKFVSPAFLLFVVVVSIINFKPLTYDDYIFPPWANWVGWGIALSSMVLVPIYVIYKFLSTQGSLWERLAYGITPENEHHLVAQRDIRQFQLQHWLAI

Compound | IC50 [nM]
CNCCCC1Oc2c(F)cccc2N(c2ccccc2)S1(=O)=O (stereo not drawn) [Example 47, 3-(5-fluoro-2,2-dioxido-1-phenyl-1H-4,2,1-benzoxathiazin-3-yl)-N-methylpropan-1-amine] | 431
CNCCCC1Oc2cccc(F)c2N(c2ccccc2)S1(=O)=O (stereo not drawn) [Example 48, 3-(8-fluoro-2,2-dioxido-1-phenyl-1H-4,2,1-benzoxathiazin-3-yl)-N-methylpropan-1-amine] | 636
CNCCCC1Oc2ccc(C)cc2N(c2ccccc2)S1(=O)=O (stereo not drawn) [Example 50, N-methyl-3-(7-methyl-2,2-dioxido-1-phenyl-1H-4,2,1-benzoxathiazin-3-yl)propan-1-amine] | 114
CNCCCC1Oc2cc(C)ccc2N(c2ccccc2)S1(=O)=O (stereo not drawn) [Example 51, N-methyl-3-(6-methyl-2,2-dioxido-1-phenyl-1H-4,2,1-benzoxathiazin-3-yl)propan-1-amine] | 249
CNCCCC1Oc2ccc(Cl)cc2N(c2ccccc2)S1(=O)=O (stereo not drawn) [Example 53, 3-(7-chloro-2,2-dioxido-1-phenyl-1H-4,2,1-benzoxathiazin-3-yl)-N-methylpropan-1-amine] | 187
CNCCCC1Oc2ccc(-c3ccccc3)cc2N(c2ccccc2)S1(=O)=O (stereo not drawn) [Example 54, 3-(2,2-dioxido-1,7-diphenyl-1H-4,2,1-benzoxathiazin-3-yl)-N-methylpropan-1-amine] | 407
CNCCCC1Oc2cc3ccccc3cc2N(c2ccccc2)S1(=O)=O (stereo not drawn) [Example 55, 3-(2,2-dioxido-1-phenyl-1H-naphtho[2,3-e][1,3,4]oxathiazin-3-yl)-N-methylpropan-1-amine hydrochloride] | 47.8
CNCCCC1Oc2ccccc2N(c2cccnc2)S1(=O)=O (stereo not drawn) [Example 56, 3-(2,2-dioxido-1-pyridin-3-yl-1H-4,2,1-benzoxathiazin-3-yl)-N-methylpropan-1-amine] | 345
CN(CCCC1Oc2ccccc2N(c2ccccc2)S1(=O)=O)Cc1ccccc1 (stereo not drawn) [Example 58, N-benzyl-3-(2,2-dioxido-1-phenyl-1H-4,2,1-benzoxathiazin-3-yl)-N-methylpropan-1-amine hydrochloride] | 822
CNCCCC1Sc2ccccc2N(c2cccc(C)c2)S1(=O)=O (stereo not drawn) [Example 60, N-methyl-3-[1-(3-methylphenyl)-2,2-dioxido-1H-2,4,1-benzodithiazin-3-yl]propan-1-amine Hydrochloride] | 465
CNCCCC1Sc2ccccc2N(c2cccc(F)c2)S1(=O)=O (stereo not drawn) [Example 61, 3-[1-(3-fluorophenyl)-2,2-dioxido-1H-2,4,1-benzodithiazin-3-yl]-N-methylpropan-1-amine hydrochloride] | 80.7
CNCCCC1Sc2ccccc2N(c2ccc(C)cc2)S1(=O)=O (stereo not drawn) [Example 63, N-methyl-3-[1-(4-methylphenyl)-2,2-dioxido-1H-2,4,1-benzodithiazin-3-yl]propan-1-amine Hydrochloride] | 156
CNCCCC1Sc2ccccc2N(c2ccc(F)cc2)S1(=O)=O (stereo not drawn) [Example 64, 3-[1-(4-fluorophenyl)-2,2-dioxido-1H-2,4,1-benzodithiazin-3-yl]-N-methylpropan-1-amine Hydrochloride] | 1000
CN(CCCC1Oc2ccccc2N(c2ccccc2)S1(=O)=O)C1CCCCC1 (stereo not drawn) [Example 85, N-[3-(2,2-dioxido-1-phenyl-1H-4,2,1-benzoxathiazin-3-yl)propyl]-N-methylcyclo hexanamine Hydrochloride] | 1920

Further lines, results first:

IC50 [nM] | Compound
875 | CNCCCC1Oc2ccc(F)cc2N(c2ccccc2)S1(=O)=O (stereo not drawn) [Example 44, 3-(7-fluoro-2,2-dioxido-1-phenyl-1H-4,2,1-benzoxathiazin-3-yl)-N-methylpropan-1-amine]
114 | CNCCCC1Oc2cc(Cl)ccc2N(c2ccccc2)S1(=O)=O (stereo not drawn) [Example 45, 3-(6-chloro-2,2-dioxido-1-phenyl-1H-4,2,1-benzoxathiazin-3-yl)-N-methylpropan-1-amine]
92.7 | CNCCCC1Oc2cc(F)ccc2N(c2ccccc2)S1(=O)=O (stereo not drawn) [Example 46, 3-(6-fluoro-2,2-dioxido-1-phenyl-1H-4,2,1-benzoxathiazin-3-yl)-N-methylpropan-1-amine]
900 | CNCCCC1Oc2cccc(C)c2N(c2ccccc2)S1(=O)=O (stereo not drawn) [Example 49, N-methyl-3-(8-methyl-2,2-dioxido-1-phenyl-1H-4,2,1-benzoxathiazin-3-yl)propan-1-amine]
607 | CNCCCC1Oc2cc(OC)ccc2N(c2ccccc2)S1(=O)=O (stereo not drawn) [Example 52, 3-(6-methoxy-2,2-dioxido-1-phenyl-1H-4,2,1-benzoxathiazin-3-yl)-N-methylpropan-1-amine]
122 | CNCCCC1Sc2ccccc2N(c2ccccc2)S1(=O)=O (stereo not drawn) [Example 59, 3-(2,2-dioxido-1-phenyl-1H-2,4,1-benzodithiazin-3-yl)-N-methylpropan-1-amine Hydrochloride]
338 | CNCCCC1Sc2ccccc2N(c2cccc(OC)c2)S1(=O)=O (stereo not drawn) [Example 62, 3-[1-(3-methoxyphenyl)-2,2-dioxido-1H-2,4,1-benzodithiazin-3-yl]-N-methylpropan-1-amine Hydrochloride]
2020 | CNCCCC1Sc2ccccc2N(c2cccc(Cl)c2)S1(=O)=O (stereo not drawn) [Example 66, 3-[1-(3-chlorophenyl)-2,2-dioxido-1H-2,4,1-benzodithiazin-3-yl]-N-methylpropan-1-amine Hydrochloride]
1500 | CNCCCC1Sc2ccccc2N(c2ccc(Cl)cc2)S1(=O)=O (stereo not drawn) [Example 67, 3-[1-(4-chlorophenyl)-2,2-dioxido-1H-2,4,1-benzodithiazin-3-yl]-N-methylpropan-1-amine Hydrochloride]
471 | CNCCCC1Sc2ccccc2N(c2ccc(F)c(Cl)c2)S1(=O)=O (stereo not drawn) [Example 68, 3-[1-(3-chloro-4-fluorophenyl)-2,2-dioxido-1H-2,4,1-benzodithiazin-3-yl]-N-methylpropan-1-amine Hydrochloride]
733 | CNCCCC1Oc2cc3ccccc3cc2N(c2ccc(C)cc2)S1(=O)=O (stereo not drawn) [Example 69, N-methyl-3-[1-(4-methylphenyl)-2,2-dioxido-1H-naphtho[2,3-e][1,3,4]oxathiazin-3-yl]propan-1-amine Hydrochloride]
119 | CNCCCC1Oc2cc3ccccc3cc2N(c2cccc(F)c2)S1(=O)=O (stereo not drawn) [Example 70, 3-[1-(3-fluorophenyl)-2,2-dioxido-1H-naphtho[2,3-e][1,3,4]oxathiazin-3-yl]-N-methylpropan-1-amine Hydrochloride]
17.7 | CNCCCC1Cc2ccccc2N(c2ccccc2F)S1(=O)=O (stereo not drawn) [Example 73, 3-[1-(2-fluorophenyl)-2,2-dioxido-3,4-dihydro-1H-2,1-benzothiazin-3-yl]-N-methylpropan-1-amine Hydrochloride]
5050 | O=S1(=O)C(CCCN2CCNCC2)Oc2ccccc2N1c1ccccc1 (stereo not drawn) [Example 76, 1-phenyl-3-(3-piperazin-1-ylpropyl)-1H-4,2,1-benzoxathiazine2,2-dioxide Dihydrochloride]
4160 | CN(C)CCCC1Oc2ccccc2N(c2ccccc2)S1(=O)=O (stereo not drawn) [Example 80, 3-(2,2-dioxido-1-phenyl-1H-4,2,1-benzoxathiazin-3-yl)-N,N-dimethylpropan-1-amine hydrochloride]

same assay, conditions: MDCK-Net6 cells, 6,000 cells/well; Conc 6000 nM (6 μM); read-out: Procedure B hNET uptake (% inhibition)

Compound | inhibition at 6 µM [%]
CC1CN(CCC2Oc3ccccc3N(c3ccccc3)S2(=O)=O)CC(C)N1 (stereo not drawn) [Example 79, 3-[2-(3,5-dimethylpiperazin-1-yl)ethyl]-1-phenyl-1H-4,2,1-benzoxathiazine 2,2-dioxide hydrochloride] | 21
CC(C)N(C)CCCC1Oc2ccccc2N(c2ccccc2)S1(=O)=O (stereo not drawn) [Example 84, 3-(2,2-dioxido-1-phenyl-1H-4,2,1-benzoxathiazin-3-yl)-N-isopropyl-N-methylpropan-1-amine Hydrochloride] | 27
CN(CCCC1Oc2ccccc2N(c2ccccc2)S1(=O)=O)C1CCCCC1 (stereo not drawn) [Example 85, N-[3-(2,2-dioxido-1-phenyl-1H-4,2,1-benzoxathiazin-3-yl)propyl]-N-methylcyclo hexanamine Hydrochloride] | 62

Other lines, results leading:

inhibition at 6 µM [%] | Compound
41 | CNCCCC1Oc2ccccc2N(c2cnc3ccccc3c2)S1(=O)=O (stereo not drawn) [Example 57, 3-(2,2-dioxido-1-quinolin-3-yl-1H-4,2,1-benzoxathiazin-3-yl)-N-methylpropan-1-amine]
58 | CNCCCC1Sc2ccccc2N(c2ccc(OC)cc2)S1(=O)=O (stereo not drawn) [Example 65, 3-[1-(4-methoxyphenyl)-2,2-dioxido-1H-2,4,1-benzodithiazin-3-yl]-N-methylpropan-1-amine hydrochloride]
33 | O=S1(=O)C(CCN2CCCNCC2)Oc2ccccc2N1c1ccccc1 (stereo not drawn) [Example 77, 3-[2-(1,4-diazepan-1-yl)ethyl]-1-phenyl-1H-4,2,1-benzoxathiazine-2,2-dioxide Dihydrochloride]
45 | O=S1(=O)C(CCN2CCCCC2)Oc2ccccc2N1c1ccccc1 (stereo not drawn) [Example 78, 1-phenyl-3-(2-piperidin-1-ylethyl)-1H-4,2,1-benzoxathiazine 2,2-dioxide hydrochloride]
27 | CCN(C)CCCC1Oc2ccccc2N(c2ccccc2)S1(=O)=O (stereo not drawn) [Example 81, 3-(2,2-dioxido-1-phenyl-1H-4,2,1-benzoxathiazin-3-yl)-N-ethyl-N-methylpropan-1-amine hydrochloride]
47 | CCN(CC)CCCC1Oc2ccccc2N(c2ccccc2)S1(=O)=O (stereo not drawn) [Example 82, 3-(2,2-dioxido-1-phenyl-1H-4,2,1-benzoxathiazin-3-yl)-N,N-diethylpropan-1-amine hydrochloride]
41 | CCN(CCO)CCCC1Oc2ccccc2N(c2ccccc2)S1(=O)=O (stereo not drawn) [Example 83, 2-{[3-(2,2-dioxido-1-phenyl-1H-4,2,1-benzoxathiazin-3-yl)propyl](ethyl)amino}ethanol hydrochloride]
